Results as given in patent publication US5102873A (priority 1989, dated 1992).
In brackets after ≈: the same amount, converted by molar mass. Several values for one entry are separate records, joined by “and”; a condition that tells them apart may be missing. Equal values may be shown once.

Key:
[1] = Cytotoxicity of test compound to Vero host cells (minimum toxic concentration); conditions: monkey, MTC (minimum toxic concentration), footnote: lowest concentration giving 50% reduction in percent survival of viable host cells
vaccinia virus = test: microbe, parasite or virus in culture; type: cell-based; conditions: for IC50: Orthopoxvirus vaccinia, Vero, read-out: ID50 (inhibitory dose 50; 50% reduction in virus replication), vaccinia virus in Vero cells, called MIC50; for TI (therapeutic index, MTC/ID50) / Virus Rating (VR): Vero cells; for TI (therapeutic index, MTC/ID50): TI>50 indicates a useful compound; for Virus Rating (VR): VR >=1.0 significant, 0.5-0.9 marginal, <0.5 inactive, repeat lines are repeat tests

SMILES | MCC [1] [µg/mL] | IC50 (vaccinia virus) [µg/mL] | TI (therapeutic index, MTC/ID50) (vaccinia virus) | Virus Rating (VR) (vaccinia virus)
COc1ccccc1COn1cnc2c(ncn2[C@@H]2O[C@H](CO)[C@@H](O)[C@H]2O)c1=N.[O-][Cl+3]([O-])([O-])O [Compound 2y, 1-(2-methoxybenzyloxy)adenosine, perchloric acid salt] | 320 | 0.17 | 1935 and > 3020 | –
N=c1c2ncn([C@@H]3O[C@H](CO)[C@@H](O)[C@H]3O)c2ncn1OCc1ccc(F)c(F)c1.[O-][Cl+3]([O-])([O-])O [Compound 2k, 1-(3,4-Difluorobenzyloxy)adenosine, perchloric acid salt] | > 320 | 0.48 | 671 and 434 | > 2.3
Cc1ccc(C)c(COn2cnc3c(ncn3[C@@H]3O[C@H](CO)[C@@H](O)[C@H]3O)c2=N)c1.[O-][Cl+3]([O-])([O-])O [Compound 2bb, 1-(2,5-Dimethylbenzyloxy)adenosine, perchloric acid salt] | 320 | 0.38 | > 850 and > 1350 | –
COc1cccc(COn2cnc3c(ncn3[C@@H]3O[C@H](CO)[C@@H](O)[C@H]3O)c2=N)c1.[O-][Cl+3]([O-])([O-])O [Compound 2e, 1-(3-Methoxybenzyloxy)adenosine, perchloric acid salt] | > 320 | 0.2 | 1609 and 1075 | –
N=c1c2ncn([C@@H]3O[C@H](CO)[C@@H](O)[C@H]3O)c2ncn1OCc1cc(F)cc(F)c1.[O-][Cl+3]([O-])([O-])O [Compound 2ff, 1-(3,5-Difluorobenzyloxy)adenosine, perchloric acid salt] | > 320 | 1.55 | 205 and 175 | > 2.0
N=c1c2ncn([C@@H]3O[C@H](CO)[C@@H](O)[C@H]3O)c2ncn1OCc1cc(C(F)(F)F)cc(C(F)(F)F)c1.[O-][Cl+3]([O-])([O-])O [Compound 2m, 1-[3,5-Bis(trifluoromethyl)benzyloxy]adenosine, perchloric acid salt] | > 320 | 1.03 | 311 and 314 | –
Cc1ccc(COn2cnc3c(ncn3[C@@H]3O[C@H](CO)[C@@H](O)[C@H]3O)c2=N)cc1C.[O-][Cl+3]([O-])([O-])O [Compound 2z, 1-(3,4-Dimethylbenzyloxy)adenosine, perchloric acid salt] | 320 | 0.32 | > 1000 and > 1760 | –
Nc1c2ncn([C@H]3C[C@H](O)[C@@H](CO)O3)c2nc[n+]1[O-] [Compound 1b, 2'-Deoxyadenosine-N^1-oxide] | > 320 | 3.06 (≈ 11.5 µM) | 104 | > 1.7
COc1ccc(COn2cnc3c(ncn3[C@@H]3O[C@H](CO)[C@@H](O)[C@H]3O)c2=N)cc1.[O-][Cl+3]([O-])([O-])O [Compound 2d, 1-(4-Methoxybenzyloxy)adenosine, perchloric acid salt] | – | 0.01 | – | –
Cc1ccc(COn2cnc3c(ncn3[C@@H]3O[C@H](CO)[C@@H](O)[C@H]3O)c2=N)cc1.[O-][Cl+3]([O-])([O-])O [Compound 2b, 1-(4-Methylbenzyloxy)adenosine, perchloric acid salt] | 100 | 0.11 | 917 | 2.4
N=c1c2ncn([C@@H]3O[C@H](CO)[C@@H](O)[C@H]3O)c2ncn1OCc1ccc(F)cc1.[O-][Cl+3]([O-])([O-])O [Compound 2i, 1-(4-Fluorobenzyloxy)adenosine, perchloric acid salt] | > 320 | 2.41 | 133 and 160 | –
N#Cc1cccc(COn2cnc3c(ncn3[C@@H]3O[C@H](CO)[C@@H](O)[C@H]3O)c2=N)c1.[O-][Cl+3]([O-])([O-])O [Compound 2x, 1-(3-Cyanobenzyloxy)adenosine, perchloric acid salt] | > 320 | – | 182 and 134 | –
CC(On1cnc2c(ncn2[C@@H]2O[C@H](CO)[C@@H](O)[C@H]2O)c1=N)c1ccccc1.[O-][Cl+3]([O-])([O-])O (some centres unmarked) [Compound 2f, 1-(1-Phenylethyloxy)adenosine, perchloric acid salt] | – | < 0.32 | – | –
Nc1c2ncn([C@@H]3O[C@H](CO)[C@@H](O)[C@H]3O)c2nc[n+]1[O-] [Compound 1a, Adenosine-N^1 -oxide] | 100 | 0.32 (≈ 1.13 µM) | 312 | > 2.4
COC(=O)c1cccc(COn2cnc3c(ncn3[C@@H]3O[C@H](CO)[C@@H](O)[C@H]3O)c2=N)c1.[O-][Cl+3]([O-])([O-])O [Compound 2u, 1-(3-Methoxycarbonylbenzyloxy)adenosine, perchloric acid salt] | > 320 | 1.55 | 207 and 139 | –
N=c1c2ncn([C@@H]3O[C@H](CO)[C@@H](O)[C@H]3O)c2ncn1OCc1ccc(F)cc1F.[O-][Cl+3]([O-])([O-])O [Compound 2j, 1-(2,4-Difluorobenzyloxy)adenosine, perchloric acid salt] | > 320 | 0.31 | 1029 | > 2.4
N=c1c2ncn([C@@H]3O[C@H](CO)[C@@H](O)[C@H]3O)c2ncn1OCc1ccccc1.[O-][Cl+3]([O-])([O-])O [Compound 2dd, 1-Benzyloxyadenosine, perchloric acid salt] | 320 | 1.77 | 180 | > 2.0
Cc1ccccc1COn1cnc2c(ncn2[C@@H]2O[C@H](CO)[C@@H](O)[C@H]2O)c1=N.[O-][Cl+3]([O-])([O-])O [Compound 2c, 1-(2-Methylbenzyloxy)adenosine, perchloric acid salt] | > 320 | 0.32 | 1000 | > 2.4
COc1ccc([N+](=O)[O-])cc1COn1cnc2c(ncn2[C@@H]2O[C@H](CO)[C@@H](O)[C@H]2O)c1=N.[O-][Cl+3]([O-])([O-])O [Compound 2t, 1-(2-Methoxy-5-nitrobenzyloxy)adenosine, perchloric acid salt] | > 320 | 2.01 | 160 and 87 | –
CNc1c2ncn([C@@H]3O[C@H](CO)[C@@H](O)[C@H]3O)c2nc[n+]1[O-] [Compound 1c, 6-Methylamino-9-β-D-ribofuranosylpurine-N^1-oxide] | 320 | 0.45 (≈ 1.51 µM) | 708 | > 2.4
N#Cc1ccccc1COn1cnc2c(ncn2[C@@H]2O[C@H](CO)[C@@H](O)[C@H]2O)c1=N.[O-][Cl+3]([O-])([O-])O [Compound 2w, 1-(2-Cyanobenzyloxy)adenosine, perchloric acid salt] | > 320 | – | – | –
N=c1c2ncn([C@@H]3O[C@H](CO)[C@@H](O)[C@H]3O)c2ncn1OCc1ccc(C(F)(F)F)cc1C(F)(F)F.[O-][Cl+3]([O-])([O-])O [Compound 2n, 1-[2,4-Bis(trifluoromethyl)benzyloxy]adenosine, perchloric acid salt] | > 320 | 1.45 | 221 and 181 | –
N=c1c2ncn([C@@H]3O[C@H](CO)[C@@H](O)[C@H]3O)c2ncn1OCc1cccc(F)c1.[O-][Cl+3]([O-])([O-])O [Compound 2h, 1-(3-Fluorobenzyloxy)adenosine, perchloric acid salt] | > 320 | 0.98 | 325 and 285 | –
N=c1c2ncn([C@@H]3O[C@H](CO)[C@@H](O)[C@H]3O)c2ncn1OCc1ccc([N+](=O)[O-])cc1.[O-][Cl+3]([O-])([O-])O [Compound 2s, 1-(4-Nitrobenzyloxy)adenosine, perchloric acid salt] | > 320 | 2.34 | 137 and 89 | > 1.7
Cc1cc(C)cc(COn2cnc3c(ncn3[C@@H]3O[C@H](CO)[C@@H](O)[C@H]3O)c2=N)c1.[O-][Cl+3]([O-])([O-])O [Compound 2aa, 1-(3,5-Dimethylbenzyloxy)adenosine, perchloric acid salt] | 320 | 0.45 | 710 and > 1000 | –
N=c1c2ncn([C@@H]3O[C@H](CO)[C@@H](O)[C@H]3O)c2ncn1OCc1ccccc1Cl.[O-][Cl+3]([O-])([O-])O [Compound 2o, 1-(2-Chlorobenzyloxy)adenosine, perchloric acid salt] | > 320 | 1.01 | 318 and 251 | –
Nc1ncnc2c1ncn2[C@@H]1O[C@H](CO)[C@@H](O)[C@@H]1O [AraA, 9-β-D-arabinofuranosyladenine, reference compound] | > 320 | 2 (≈ 7.48 µM) | 13.3 | 1.0
N=c1c2ncn([C@@H]3O[C@H](CO)[C@@H](O)[C@H]3O)c2ncn1OCc1ccccc1F.[O-][Cl+3]([O-])([O-])O [Compound 2g, 1-(2-Fluorobenzyloxy)adenosine, perchloric acid salt] | > 320 | 4.97 | 64 and 34 | –
N=c1c2ncn([C@@H]3O[C@H](CO)[C@@H](O)[C@H]3O)c2ncn1OCc1cccc([N+](=O)[O-])c1.[O-][Cl+3]([O-])([O-])O [Compound 2r, 1-(3-Nitrobenzyloxy)adenosine, perchloric acid salt] | > 320 | 10 | 32 and 30 | –
N=c1c2ncn([C@@H]3O[C@H](CO)[C@@H](O)[C@H]3O)c2ncn1OCc1ccccc1C(F)(F)F.[O-][Cl+3]([O-])([O-])O [Compound 2l, 1-(2-Trifluoromethylbenzyloxy)adenosine, perchloric acid salt] | > 320 | 0.82 | 391 | > 2.2
